From patent US20110039762A1, “TARGETED ANTIMICROBIAL MOIETIES” (C3 JIAN, INC., priority 2009, published 2011)
Entries after “also recorded” stand apart in the source; their conditions may differ. Ends that are not written are not given here.

Key:
MRSA = experiment: Kill or inhibit growth/proliferation; morphology, biofilm and growth disruption (Tables 5, 6); assay type: cell-based, Methicillin-resistant Staphylococcus aureus; design: key: A: Peptide aggregates; B: Less hyphal formation; Clumps; Diffuse clumps and small polyps; F: Diffuse growth; H: Thin; I: Growth inhibition; Microcolony formation; Rippled; Small polyps; Thick; W: Halo formation on top, microlonies on bottom; note: test concentration or dose not given here
microorganisms = experiment: Peptides having multiple activities (targeting/binding, antimicrobial, growth or phenotype altering)
Description: In certain embodiments, peptides described herein can have multiple activities. Thus for example, a peptide can have both binding/targeting activity and antimicrobial activity. Such peptides can be used, e.g., in a chimeric construct, for any or all of these properties. Thus, for example, a peptide designated “B” in Table 8 can be used as a targeting peptide. If it is also designated G or M it can also be used for antimicrobial activity.

[1] = system: microorganisms (e.g., bacteria, yeasts, fungi); experiment: Targeting peptide binding to target microorganisms (Table 3); settings: preferably 1x PBS; for Target(s): microorganism(s) the targeting peptide binds, peptide binding conducted in aqueous buffers varied by peptide solubility; for Target(s) (microorganisms bound by the targeting peptide): peptide binding in aqueous buffers varied by peptide solubility
S. pneumoniae = experiment: Kill or inhibit growth/proliferation; morphology, biofilm and growth disruption (Tables 5, 6); assay type: cell-based, Streptococcus pneumoniae; design: key: A: Peptide aggregates; B: Less hyphal formation; Clumps; Diffuse clumps and small polyps; F: Diffuse growth; H: Thin; I: Growth inhibition; Microcolony formation; Rippled; Small polyps; Thick; W: Halo formation on top, microlonies on bottom; note: test concentration or dose not given here

Substance | Organism, effect (MRSA) | Activities (microorganisms) | Target(s) [1] | Organism, effect (S. pneumoniae) | Target(s) (microorganisms bound by the targeting peptide) [1] | Organism, effect (morphology, biofilm and growth disruption) (MRSA) | Organism, effect (morphology, biofilm and growth disruption) (S. pneumoniae)
PF-019 (NDTNK; Peptide with targeting and/or antimicrobial activity) | MRSA (M) | – | – | – | – | – | –
PF-354: peptide having multiple activities (chain 1 FTFSKCRASNGRGFGTLWL; chain 2 FTFSKCRASNGRGFGTLWL; Peptide with targeting and/or antimicrobial activity) | MRSA (H) | G B | – | – | – | – | –
PF-445: peptide having multiple activities (chain 1 ASMTKRLKLAMSKV; chain 2 ASMTKRLKLAMSKV; Peptide with targeting and/or antimicrobial activity) | – | G B | M. luteus; also recorded: S. pneumoniae; also recorded: C. jeikeium | S. pneumoniae (M) | – | – | –
PF-446: peptide having multiple activities (chain 1 SGNEKV; chain 2 SGNEKV; Peptide with targeting and/or antimicrobial activity) | – | G B | M. luteus; also recorded: C. jeikeium | S. pneumoniae (H) | – | – | –
PF-457: peptide having multiple activities (chain 1 INKYHHIA; chain 2 INKYHHIA; Peptide with targeting and/or antimicrobial activity) | – | G B | C. albicans; also recorded: S. pneumoniae; also recorded: E. faecalis; also recorded: C. jeikeium | S. pneumoniae (M) | – | – | –
PF-459: peptide having multiple activities (chain 1 EKRMSFNENQSHRPLL; chain 2 EKRMSFNENQSHRPLL; Peptide with targeting and/or antimicrobial activity) | – | G B | P. aeruginosa | S. pneumoniae (H) | – | – | –
PF-462: peptide having multiple activities (chain 1 KNKTDTL; chain 2 KNKTDTL; Peptide with targeting and/or antimicrobial activity) | – | G B | E. faecalis; also recorded: C. jeikeium | S. pneumoniae (H) | – | – | –
PF-464: peptide having multiple activities (chain 1 VDMVNRFLGN; chain 2 VDMVNRFLGN; Peptide with targeting and/or antimicrobial activity) | – | G B | S. epidermidis and C. albicans and MRSA and S. pneumoniae and E. faecalis and C. jeikeium and C. jejuni | S. pneumoniae (S) | – | – | –
PF-466: peptide having multiple activities (chain 1 VRKSDQ; chain 2 VRKSDQ; Peptide with targeting and/or antimicrobial activity) | – | G B | MRSA and C. jeikeium and C. jejuni | S. pneumoniae (H) | – | – | –
PF-467: peptide having multiple activities (chain 1 YYKDYFKEI; chain 2 YYKDYFKEI; Peptide with targeting and/or antimicrobial activity) | – | G B | MRSA and E. faecalis and C. jeikeium and C. jejuni | S. pneumoniae (H) | – | – | –
PF-476: peptide having multiple activities (chain 1 WADAQYKLCENCSE; chain 2 WADAQYKLCENCSE; Peptide with targeting and/or antimicrobial activity) | – | G B | M. luteus; also recorded: P. mirabilis; also recorded: C. albicans; also recorded: S. pneumoniae; also recorded: E. faecalis; also recorded: C. jeikeium; also recorded: C. jejuni | S. pneumoniae (H) | – | – | –
PF-513: peptide having multiple activities (chain 1 SNGVGLGVGIGSGIRF-NH2; chain 2 SNGVGLGVGIGSGIRF-NH2) | – | G B | C. albicans | S. pneumoniae (M) | – | – | –
PF-515: peptide having multiple activities (chain 1 DKSTQDKDIKQAKLLAQELGL-NH2; chain 2 DKSTQDKDIKQAKLLAQELGL-NH2) | – | G B | S. epidermidis; also recorded: C. albicans; also recorded: S. pneumoniae; also recorded: C. jeikeium | S. pneumoniae (H) | – | – | –
PF-517: peptide having multiple activities (chain 1 VKPTMTASLISTVC; chain 2 VKPTMTASLISTVC; Peptide with targeting and/or antimicrobial activity) | – | G B | C. jejuni | S. pneumoniae (M) | – | – | –
PF-542: peptide having multiple activities (chain 1 KKDNPSLNDQDKNAVLNLLALAK; chain 2 KKDNPSLNDQDKNAVLNLLALAK; Peptide with targeting and/or antimicrobial activity) | – | G B | C. jeikeium | S. pneumoniae (H) | – | – | –
PF-573: peptide having multiple activities (chain 1 EKKLIVKLIDSIGKSHEEIVGAG; chain 2 EKKLIVKLIDSIGKSHEEIVGAG; Peptide with targeting and/or antimicrobial activity) | – | G B | S. epidermidis; also recorded: S. pneumoniae | S. pneumoniae (C) | – | – | –
PF-625: peptide having multiple activities (SDSTNNARTRKKARDVTTKDIDK; Peptide with targeting and/or antimicrobial activity) | – | G B | – | S. pneumoniae (H) | S. epidermidis; also recorded: M. luteus; also recorded: S. pneumoniae; also recorded: C. jeikeium | – | –
PF-626: peptide having multiple activities (KYDFDDFEPEEA; Peptide with targeting and/or antimicrobial activity) | – | G B | – | S. pneumoniae (H) | S. epidermidis and M. luteus and E. coli and C. albicans and MRSA and S. pneumoniae and E. faecalis and C. jeikeium | – | –
PF-656 (chain 1 RGMFVPFHDVDCVQ; chain 2 RGMFVPFHDVDCVQ; Peptide with targeting and/or antimicrobial activity) | – | – | – | – | Mycobacteria spp | MRSA (R) | –
PF-661 (chain 1 PDEDIRRRAILPPAGPCRPMSPE; chain 2 PDEDIRRRAILPPAGPCRPMSPE; Peptide with targeting and/or antimicrobial activity) | – | – | – | – | Mycobacteria spp | MRSA (R) | –
PF-680 (chain 1 ADPHPTTGI; chain 2 ADPHPTTGI; Peptide with targeting and/or antimicrobial activity) | – | – | – | – | Mycobacteria spp | MRSA (R) | –
PF-692 (chain 1 GVAREDPLEPDPLAPIIDDSR; chain 2 GVAREDPLEPDPLAPIIDDSR; Peptide with targeting and/or antimicrobial activity) | – | – | – | – | Mycobacteria spp | MRSA (R) | –
PF-737: peptide having multiple activities (KSSGSSASASSTAGGSSSK; Peptide with targeting and/or antimicrobial activity) | – | G B | – | – | S. epidermidis; also recorded: S. pneumoniae | – | S. pneumoniae (D)
PF-744: peptide having multiple activities (LGVGTFVGKVLIKNQQKQKSKKKAQ; Peptide with targeting and/or antimicrobial activity) | – | G B | – | – | S. epidermidis and M. luteus and E. coli and MRSA and S. pneumoniae and E. faecalis and C. jeikeium | – | S. pneumoniae (H)
PF-756: peptide having multiple activities (DALLRLA; Peptide with targeting and/or antimicrobial activity) | – | G B | – | – | S. epidermidis and M. luteus and C. albicans and MRSA and C. jeikeium | – | S. pneumoniae (A)
PF-757: peptide having multiple activities (PQAISSVQQNA; Peptide with targeting and/or antimicrobial activity) | – | G B | – | – | M. luteus and C. albicans and MRSA | – | S. pneumoniae (H)
PF-762: peptide having multiple activities (PAPAPSAPAPAPEQPEQPA; Peptide with targeting and/or antimicrobial activity) | – | G B | – | – | M. luteus; also recorded: C. albicans | – | S. pneumoniae (H)
